Structures can show the parent of a compound that is named as a salt. Where two headings read alike, the source gives them in different places.
Experiments:
human NTCP [1] = target: T1, human NTCP (Homo sapiens, UniProt Q14973); assay: Screening taurocholate uptake assay (96-well, [14C]taurocholate, 10 µM drug)
T1 sequence (Q14973 1-349): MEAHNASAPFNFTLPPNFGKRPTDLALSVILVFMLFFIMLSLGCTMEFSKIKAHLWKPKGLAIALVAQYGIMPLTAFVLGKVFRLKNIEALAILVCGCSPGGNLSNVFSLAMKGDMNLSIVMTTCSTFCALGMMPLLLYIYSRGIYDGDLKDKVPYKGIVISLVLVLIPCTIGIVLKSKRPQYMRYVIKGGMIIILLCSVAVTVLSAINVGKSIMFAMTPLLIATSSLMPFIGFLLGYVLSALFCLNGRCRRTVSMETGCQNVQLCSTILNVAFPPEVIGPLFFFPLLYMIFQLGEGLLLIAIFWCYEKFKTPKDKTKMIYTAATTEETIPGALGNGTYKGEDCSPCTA

human NTCP [2] = target: T1, human NTCP; assay: Screening fluorescent competitive Myrcludex B-FITC binding assay (96-well, 10 µM drug)
[3] = Prestwick library screen, taurocholate uptake, 10 µM drug
[4] = ranking score beside the functional and binding assay B-scores of the screen
[5] = Prestwick library screen, Myrcludex B-FITC binding, 10 µM drug
[6] = Prestwick library screen, 10 µM drug, B-score of taurocholate uptake
[7] = combined ranking from functional and binding assay B-scores
[8] = Prestwick library screen, 10 µM drug, B-score of Myrcludex B-FITC binding
[9] = combined ranking from functional and binding screening assays
[10] = screen, 10 µM drug, taurocholate uptake
[11] = screen, 10 µM drug, Myrcludex B-FITC binding

| Compound | B-score functional assay (human NTCP [1]; [3]) | Ranking score (human NTCP [1]; [4]) | B-score binding assay (human NTCP [2]; [5]) | B-score functional assay (human NTCP [1]; [6]) | Ranking score (human NTCP [1]; [7]) | B-score binding assay (human NTCP [2]; [8]) | other results |
| --- | --- | --- | --- | --- | --- | --- | --- |
| CC1(C)O[C@@H]2C[C@H]3[C@@H]4C[C@H](F)C5=CC(=O)C=C[C@]5(C)[C@@]4(F)[C@@H](O)C[C@]3(C)[C@]2(C(=O)CO)O1 [Fluocinolone acetonide] | 0.621 | 752.533 | -0.033 | – | – | – | – |
| CN(C)[C@@H]1C(O)=C(C(N)=O)C(=O)[C@@]2(O)C(O)=C3C(=O)c4c(O)ccc(Cl)c4[C@@H](O)[C@H]3C[C@@H]12 [Demeclocycline hydrochloride] | 0.083 | 738.496 | 0.096 | – | – | – | – |
| CCCCc1ccc2[nH]c(NC(=O)OC)nc2c1 [Parbendazole] | – | – | – | 1.481 | 989.697 | 0.33 | – |
| Cn1c(=O)c2c(ncn2CC(=O)O)n(C)c1=O [Acefylline] | – | – | – | 0.41 | 910.022 | 0.607 | – |
| CC[C@]12CCCN3CCc4c(n(c5ccccc45)[C@@](O)(C(=O)OC)C1)[C@@H]32 [Vincamine] | -0.257 | 659.7 | 0.616 | – | – | – | – |
| Spiramycin | – | – | – | 0.83 | 1002.4 | 0.801 | – |
| O=C(O)C(O)C(O)C(=O)O.O=C(c1ccc(F)cc1)C1CCN(CCn2c(=O)[nH]c3ccccc3c2=O)CC1 [Ketanserin tartrate hydrate] | 0.482 | 727.865 | -0.046 | – | – | – | – |
| CN(C)CCC=C1c2ccccc2COc2ccccc21 [Doxepin hydrochloride] | – | – | – | – | – | – | Ranking score (human NTCP [1]; [9]): 385.759; B-score functional assay (human NTCP [1]; [10]): -1.158; B-score binding assay (human NTCP [2]; [11]): 0.002 |
| O=C(NCNC(=O)NC1C(=O)NC(=O)N1CO)NC1C(=O)NC(=O)N1CO (stereo not drawn) [Imidurea] | – | – | – | 1.058 | 960.608 | 0.346 | – |
| CN1Cc2c(N)cccc2C(c2ccccc2)C1 (stereo not drawn) [Nomifensine maleate] | – | – | – | – | – | – | Ranking score (human NTCP [1]; [9]): 394.208; B-score functional assay (human NTCP [1]; [10]): 0.089; B-score binding assay (human NTCP [2]; [11]): -1.176 |
| CN[C@@H]1[C@@H](O)[C@@H](O[C@@H]2[C@@H](O)[C@H](O[C@H]3OC(CN)=CC[C@H]3N)[C@@H](N)C[C@H]2N)OC[C@]1(C)O [Sisomicin sulfate] | – | – | – | 1.589 | 1018.48 | 0.455 | – |
| N=C(N)NCC1COC2(CCCCC2)O1.N=C(N)NCC1COC2(CCCCC2)O1.O=S(=O)(O)O (stereo not drawn) [Guanadrel sulfate] | – | – | – | – | – | – | Ranking score (human NTCP [1]; [9]): 326.821; B-score functional assay (human NTCP [1]; [10]): -2.033; B-score binding assay (human NTCP [2]; [11]): 0.27 |
| C[N+]12CCC(CC1)C(OC(=O)C(O)(c1ccccc1)c1ccccc1)C2 (stereo not drawn) [Clidinium bromide] | – | – | – | 0.121 | 877.232 | 0.853 | – |
| CCC(=O)O[C@]1(C(=O)SCF)[C@H](C)C[C@H]2[C@@H]3C[C@H](F)C4=CC(=O)C=C[C@]4(C)[C@@]3(F)[C@@H](O)C[C@@]21C [Fluticasone propionate] | 0.021 | 830.535 | 0.947 | – | – | – | – |
| COC(=O)Nc1nc2ccc(C(=O)c3ccccc3)cc2[nH]1 [Mebendazole] | – | – | – | – | – | – | Ranking score (human NTCP [1]; [9]): 327.443; B-score functional assay (human NTCP [1]; [10]): -0.824; B-score binding assay (human NTCP [2]; [11]): -0.531 |
| Cc1cc(C)nc([N-]S(=O)(=O)c2ccc(N)cc2)n1.[Na+] [Sulfamethazine sodium salt] | 0.394 | 760.788 | 0.015 | – | – | – | – |
| Cn1cc[nH]c1=S [Methimazole] | – | – | – | 0.936 | 1068.39 | 1.226 | – |
| CCCCNC(=O)NS(=O)(=O)c1ccc(C)cc1 [Tolbutamide] | – | – | – | – | – | – | Ranking score (human NTCP [1]; [9]): 448.765; B-score functional assay (human NTCP [1]; [10]): 0.082; B-score binding assay (human NTCP [2]; [11]): -0.855 |
| CCC1=C[C@@H]2CN3CCc4c([nH]c5ccccc45)[C@@](C(=O)OC)(C2)[C@@H]13 [Catharanthine] | – | – | – | – | – | – | Ranking score (human NTCP [1]; [9]): 448.328; B-score functional assay (human NTCP [1]; [10]): -0.613; B-score binding assay (human NTCP [2]; [11]): -0.047 |
| CC[N+](C)(C)Cc1ccccc1Br [Bretylium tosylate] | – | – | – | – | – | – | Ranking score (human NTCP [1]; [9]): 436.134; B-score functional assay (human NTCP [1]; [10]): -1.625; B-score binding assay (human NTCP [2]; [11]): 1.504 |
| CCC1(c2ccccc2)C(=O)NCNC1=O [Primidone] | 1.471 | 845.018 | -0.009 | – | – | – | – |
| CCCCN(CCCC)CCCOC(=O)c1ccc(N)cc1 [Butacaine] | -0.185 | 672.37 | 0.529 | – | – | – | – |
| NCCc1ccc(O)c(O)c1 [Dopamine hydrochloride] | -0.07 | 802.566 | 1.493 | – | – | – | – |

| Compound | B-score functional assay (human NTCP [1]; [3]) | Ranking score (human NTCP [1]; [4]) | B-score binding assay (human NTCP [2]; [5]) | B-score functional assay (human NTCP [1]; [6]) | Ranking score (human NTCP [1]; [7]) | B-score binding assay (human NTCP [2]; [8]) | other results |
| --- | --- | --- | --- | --- | --- | --- | --- |
| O=C1c2c(O)ccc(O)c2C(=O)c2c(NCCNCCO)ccc(NCCNCCO)c21 [Mitoxantrone dihydrochloride] | 4.449 | 807.326 | -0.161 | – | – | – | – |
| Cc1cc(N)c2ccccc2[n+]1CCCCCCCCCC[n+]1c(C)cc(N)c2ccccc21 [Dequalinium dichloride] | -0.527 | 680.714 | 3.994 | – | – | – | – |
| COC(=O)Nc1nc2ccc(C(=O)c3cccs3)cc2[nH]1 [Nocodazole] | – | – | – | – | – | – | Ranking score (human NTCP [1]; [9]): 428.035; B-score functional assay (human NTCP [1]; [10]): -1.345; B-score binding assay (human NTCP [2]; [11]): 0.497 |
| CC(C)NCC(O)COc1cccc2[nH]ccc12 (stereo not drawn) [Pindolol] | -0.046 | 777.082 | 0.992 | – | – | – | – |
| Cc1cn([C@H]2C=C[C@@H](CO)O2)c(=O)[nH]c1=O [Stavudine] | – | – | – | 0.865 | 957.909 | 0.431 | – |
| O=C(Nc1ccccc1)OCC(CN1CCCCC1)OC(=O)Nc1ccccc1 (stereo not drawn) [Diperodon hydrochloride] | 0.512 | 772.884 | 0.002 | – | – | – | – |
| O=C(NC(Cc1cc(=O)[nH]c2ccccc12)C(=O)O)c1ccc(Cl)cc1 (stereo not drawn) [Rebamipide] | – | – | – | 0.089 | 955.076 | 2.49 | – |
| O=C1NCCN1c1ncc([N+](=O)[O-])s1 [Niridazole] | – | – | – | – | – | – | Ranking score (human NTCP [1]; [9]): 301.174; B-score functional assay (human NTCP [1]; [10]): -1.225; B-score binding assay (human NTCP [2]; [11]): -0.358 |
| (-) -Levobunolol hydrochloride | – | – | – | 0.733 | 1039.8 | 1.256 | – |
| C[C@H]1c2cccc(O)c2C(=O)C2=C(O)[C@]3(O)C(=O)C(C(N)=O)=C(O)[C@@H](N(C)C)[C@@H]3[C@@H](O)[C@@H]21 [Doxycycline hydrochloride] | – | – | – | – | – | – | Ranking score (human NTCP [1]; [9]): 380.385; B-score functional assay (human NTCP [1]; [10]): -0.015; B-score binding assay (human NTCP [2]; [11]): -1.041 |
| COc1ccc(C(=O)NCc2cccnc2)cc1C(=O)NCc1cccnc1.O [Picotamide monohydrate] | -0.041 | 752.987 | 0.672 | – | – | – | – |
| Cl.N[C@@H]1CCCCN(c2c(F)cc3c(=O)c(C(=O)O)cn(C4CC4)c3c2Cl)C1 [Besifloxacin hydrochloride] | – | – | – | 1.274 | 1087.71 | 1.112 | – |
| O=C(O)c1cn(-c2ccc(F)cc2)c2cc(N3CCNCC3)c(F)cc2c1=O [Sarafloxacin] | – | – | – | – | – | – | Ranking score (human NTCP [1]; [9]): 305.771; B-score functional assay (human NTCP [1]; [10]): -0.49; B-score binding assay (human NTCP [2]; [11]): -0.967 |
| C[C@]12Cc3c[nH]nc3C[C@@H]1CC[C@@H]1[C@@H]2CC[C@@]2(C)[C@H]1CC[C@]2(C)O [Stanozolol] | – | – | – | – | – | – | B-score functional assay (human NTCP [1]): -1.951; Ranking score (human NTCP [1]): 107.121; B-score binding assay (human NTCP [2]): -2.248 |
| CC[C@@H](C(N)=O)N1CCCC1=O [Levetiracetam] | -0.058 | 657.267 | 0.117 | – | – | – | – |
| CCCN1C[C@H](CSC)C[C@@H]2c3cccc4[nH]cc(c34)C[C@H]21 [Pergolide mesylate] | -0.089 | 708.625 | 0.514 | – | – | – | – |
| C[C@]12CCC(=O)C(O)=C1CC[C@@H]1[C@@H]2CC[C@]2(C)C(=O)CC[C@@H]12 [Formestane] | – | – | – | – | – | – | B-score functional assay (human NTCP [1]): -0.613; Ranking score (human NTCP [1]): 420.899; B-score binding assay (human NTCP [2]): -0.147 |
| O=C(O)CNC(=O)C(CS)Cc1ccccc1 (stereo not drawn) [Thiorphan] | – | – | – | 0.09 | 959.982 | 2.652 | – |
| CCCc1nn(C)c2c(=O)[nH]c(-c3cc(S(=O)(=O)N4CCN(C)CC4)ccc3OCC)nc12 [Sildenafil] | 0.011 | 755.751 | 0.383 | – | – | – | – |
| NNCCc1ccccc1 [Phenelzine sulfate] | – | – | – | – | – | – | Ranking score (human NTCP [1]; [9]): 418.784; B-score functional assay (human NTCP [1]; [10]): -0.221; B-score binding assay (human NTCP [2]; [11]): -0.533 |
| Cc1ccccc1N1C(=O)c2cc(S(N)(=O)=O)c(Cl)cc2NC1C (stereo not drawn) [Metolazone] | – | – | – | 0.67 | 1031.7 | 1.32 | – |
| C=C(CC)C(=O)c1ccc(OCC(=O)O)c(Cl)c1Cl [Ethacrynic acid] | – | – | – | 0.935 | 1005.99 | 0.672 | – |

— publication PMC5681660, “Reduced hepatitis B and D viral entry using clinically applied drugs as novel inhibitors of the bile acid transporter NTCP” (Scientific Reports, 2017)
